Reference: publication PMC10945555, “Improving Activity of New Arylurea Agents against Multidrug-Resistant and Biofilm-Producing Staphylococcus epidermidis” (ACS Medicinal Chemistry Letters, 2024)
≈ marks a conversion by molar mass, not a printed value. Like-named read-outs stand apart in the source and are kept apart here.

Tests used:
Format in all cases: cell-based
[1] = test system: Staphylococcus aureus ATCC BAA-976; experiment: MIC, broth microdilution, MDR/BPSA reference strain; conditions: ATCCBAA976; Staphylococcus aureus ATCC BAA-976; read-out: MIC MDR/BPSA
From the text: (§1) These strains included susceptible, multidrug-resistant, and biofilm-producing strains of S. epidermidis and S. aureus (MSSE, MDR/BPSE, and MDR/BPSA, respectively). The cornerstone antibiotic linezolid served as a positive control (Table 1). The impact of structural modifications at the aryloxy fragment and the aromatic moiety bound to the propyl linker on the inhibitory activity was initially investigated. […] Further optimization focused on evaluating the impact of the type of substituent and its position on the arylsulfonamide fragment’s activity.
(§2) 2 Biological assay protocols
(§3) Microbiological tests were carried out under aseptic conditions in a laminar chamber of the 2nd […]
(§4) (BioTectum 1.2, Alchem Poland). The assessment of antimicrobial activity was carried out for final compounds in the form of free bases, soluble in DMSO (Merck, Germany), at the initial […]
(§5) concentration of 1 mg/mL. […]
(§6) were provided by Cayman Chemical, USA.
(§7) The activity of all newly synthesized compounds was tested in vitro on a panel of selected reference strains from the American Type Culture Collection (ATCC) of Gram-positive […]
(§8) 2.2 Effect of evaluated compounds on planktonic cells
(§9) The susceptibility of three reference bacterial strains (Staphylococcus epidermidis ATCC […]
(§10) Table S1) and 81 clinical MDR S. epidermidis (Table S2) to the tested compounds was assessed by determining the MIC value (Minimal Inhibitory Concentration) by microdilution in a liquid medium in 96-well flat-bottom cell culture plates (Nest Biotechnology Scientific, USA). The antibacterial properties of the compo unds were tested in the concentration range from 50 µg/mL to 0.1 µg/mL by making a series of double dilutions of the compound in liquid Mueller -Hinton II Broth Cation Adjusted (MHB II, BBL TM, USA) according to the European Committee on […]
(§11) Antimicrobial Susceptibility Testing guidelines (EUCAST).2,3 The determinations were performed twice. The MIC50 and MIC90 values were determined for each of the tested

[2] = test system: clinical MDR Staphylococcus epidermidis isolates; experiment: MIC, broth microdilution, 81 clinical MDR strains; conditions: Staphylococcus epidermidis
Method: as §2, §3, §4, §5
were provided by Cayman Chemical, USA. […]
The antibacterial activity of selected compounds was also tested on a panel of 81 unrelated, multidrug -resistant clinical strains of Staphylococcus epidermidis from the own collection of the Department of Pharmaceutical Microbiology of the Jagiellonian University Medical College.
as §8, §9, §10, §11

[3] = test system: Staphylococcus epidermidis ATCC 35984; experiment: MIC, broth microdilution, MDR/BPSE reference strain; conditions: Staphylococcus epidermidis, ATCC35984, read-out: MIC MDR/BPSE, Staphylococcus epidermidis ATCC 35984
From the text: as §1, §2, §3, §4, §5, §6, §7, §8, §9, §10, §11

`O=S(=O)(NC1CCN(CCC(Oc2ccc(C(F)(F)F)cc2)c2cccs2)CC1)c1cccc(Br)c1` (centres unmarked) [Compound 18] gave an MIC [1] of 50 µg/mL (≈ 82.8 µM), an MIC ([2]; clinical strain 1 (Table S2), read-out: MIC) of 0.8 µg/mL (≈ 1.33 µM) and an MIC ([2]; clinical strain 2 (Table S2), read-out: MIC) of 3.12 µg/mL (≈ 5.18 µM). The MIC ([2]; clinical strain 3 (Table S2), read-out: MIC) was 6.25 µg/mL (≈ 10.4 µM), the MIC ([2]; clinical strain 4 (Table S2), read-out: MIC) was 50 µg/mL (≈ 82.8 µM) and the MIC ([2]; clinical strain 5 (Table S2), read-out: MIC) was 1.6 µg/mL (≈ 2.65 µM). For the same compound, the MIC ([2]; clinical strain 6 (Table S2), read-out: MIC) was 12.5 µg/mL (≈ 20.7 µM), the MIC ([2]; clinical strain 7 (Table S2), read-out: MIC) was 25 µg/mL (≈ 41.4 µM) and the MIC ([2]; clinical strain 8 (Table S2), read-out: MIC) was 3.12 µg/mL (≈ 5.18 µM). The MIC ([2]; clinical strain 9 (Table S2), read-out: MIC) was 50 µg/mL (≈ 82.8 µM), the MIC ([2]; clinical strain 10 (Table S2), read-out: MIC) was 50 µg/mL (≈ 82.8 µM) and the MIC ([2]; clinical strain 11 (Table S2), read-out: MIC) was 6.25 µg/mL (≈ 10.4 µM). The MIC ([2]; clinical strain 12 (Table S2), read-out: MIC) was 12.5 µg/mL (≈ 20.7 µM), the MIC ([2]; clinical strain 13 (Table S2), read-out: MIC) was 12.5 µg/mL (≈ 20.7 µM) and the MIC ([2]; clinical strain 14 (Table S2), read-out: MIC) was 50 µg/mL (≈ 82.8 µM). It also gave an MIC ([2]; clinical strain 15 (Table S2), read-out: MIC) of 50 µg/mL (≈ 82.8 µM), an MIC ([2]; clinical strain 16 (Table S2), read-out: MIC) of 50 µg/mL (≈ 82.8 µM) and an MIC ([2]; clinical strain 17 (Table S2), read-out: MIC) of 12.5 µg/mL (≈ 20.7 µM). The MIC ([2]; clinical strain 18 (Table S2), read-out: MIC) was 50 µg/mL (≈ 82.8 µM), the MIC ([2]; clinical strain 19 (Table S2), read-out: MIC) was 6.25 µg/mL (≈ 10.4 µM) and the MIC ([2]; clinical strain 20 (Table S2), read-out: MIC) was 3.12 µg/mL (≈ 5.18 µM). For the same compound, the MIC ([2]; clinical strain 21 (Table S2), read-out: MIC) was 3.12 µg/mL (≈ 5.18 µM), the MIC ([2]; clinical strain 22 (Table S2), read-out: MIC) was 3.12 µg/mL (≈ 5.18 µM) and the MIC ([2]; clinical strain 23 (Table S2), read-out: MIC) was 0.8 µg/mL (≈ 1.33 µM). It also gave an MIC ([2]; clinical strain 24 (Table S2), read-out: MIC) of 3.12 µg/mL (≈ 5.18 µM), an MIC ([2]; clinical strain 25 (Table S2), read-out: MIC) of 6.25 µg/mL (≈ 10.4 µM) and an MIC ([2]; clinical strain 26 (Table S2), read-out: MIC) of 50 µg/mL (≈ 82.8 µM). It also gave an MIC ([2]; clinical strain 27 (Table S2), read-out: MIC) of 0.8 µg/mL (≈ 1.33 µM), an MIC ([2]; clinical strain 28 (Table S2), read-out: MIC) of 50 µg/mL (≈ 82.8 µM) and an MIC ([2]; clinical strain 29 (Table S2), read-out: MIC) of 50 µg/mL (≈ 82.8 µM). The MIC ([2]; clinical strain 30 (Table S2), read-out: MIC) was 50 µg/mL (≈ 82.8 µM), the MIC ([2]; clinical strain 31 (Table S2), read-out: MIC) was 50 µg/mL (≈ 82.8 µM) and the MIC ([2]; clinical strain 32 (Table S2), read-out: MIC) was 50 µg/mL (≈ 82.8 µM). It also gave an MIC ([2]; clinical strain 33 (Table S2), read-out: MIC) of 50 µg/mL (≈ 82.8 µM), an MIC ([2]; clinical strain 34 (Table S2), read-out: MIC) of 50 µg/mL (≈ 82.8 µM) and an MIC ([2]; clinical strain 35 (Table S2), read-out: MIC) of 1.6 µg/mL (≈ 2.65 µM). For the same compound, the MIC ([2]; clinical strain 36 (Table S2), read-out: MIC) was 50 µg/mL (≈ 82.8 µM), the MIC ([2]; clinical strain 37 (Table S2), read-out: MIC) was 50 µg/mL (≈ 82.8 µM) and the MIC ([2]; clinical strain 38 (Table S2), read-out: MIC) was 50 µg/mL (≈ 82.8 µM). It also gave an MIC ([2]; clinical strain 39 (Table S2), read-out: MIC) of 50 µg/mL (≈ 82.8 µM), an MIC ([2]; clinical strain 40 (Table S2), read-out: MIC) of 50 µg/mL (≈ 82.8 µM) and an MIC ([2]; clinical strain 41 (Table S2), read-out: MIC) of 6.25 µg/mL (≈ 10.4 µM). For the same compound, the MIC ([2]; clinical strain 42 (Table S2), read-out: MIC) was 1.6 µg/mL (≈ 2.65 µM), the MIC ([2]; clinical strain 43 (Table S2), read-out: MIC) was 1.6 µg/mL (≈ 2.65 µM) and the MIC ([2]; clinical strain 44 (Table S2), read-out: MIC) was 50 µg/mL (≈ 82.8 µM). It also gave an MIC ([2]; clinical strain 45 (Table S2), read-out: MIC) of 50 µg/mL (≈ 82.8 µM), an MIC ([2]; clinical strain 46 (Table S2), read-out: MIC) of 50 µg/mL (≈ 82.8 µM) and an MIC ([2]; clinical strain 47 (Table S2), read-out: MIC) of 50 µg/mL (≈ 82.8 µM). The MIC ([2]; clinical strain 48 (Table S2), read-out: MIC) was 50 µg/mL (≈ 82.8 µM), the MIC ([2]; clinical strain 49 (Table S2), read-out: MIC) was 50 µg/mL (≈ 82.8 µM) and the MIC ([2]; clinical strain 50 (Table S2), read-out: MIC) was 50 µg/mL (≈ 82.8 µM). The MIC ([2]; clinical strain 51 (Table S2), read-out: MIC) was 50 µg/mL (≈ 82.8 µM), the MIC ([2]; clinical strain 52 (Table S2), read-out: MIC) was 50 µg/mL (≈ 82.8 µM) and the MIC ([2]; clinical strain 53 (Table S2), read-out: MIC) was 50 µg/mL (≈ 82.8 µM). The MIC ([2]; clinical strain 54 (Table S2), read-out: MIC) was 50 µg/mL (≈ 82.8 µM), the MIC ([2]; clinical strain 55 (Table S2), read-out: MIC) was 50 µg/mL (≈ 82.8 µM) and the MIC ([2]; clinical strain 56 (Table S2), read-out: MIC) was 50 µg/mL (≈ 82.8 µM). It also gave an MIC ([2]; clinical strain 57 (Table S2), read-out: MIC) of 50 µg/mL (≈ 82.8 µM), an MIC ([2]; clinical strain 58 (Table S2), read-out: MIC) of 50 µg/mL (≈ 82.8 µM) and an MIC ([2]; clinical strain 59 (Table S2), read-out: MIC) of 50 µg/mL (≈ 82.8 µM). It also gave an MIC ([2]; clinical strain 60 (Table S2), read-out: MIC) of 50 µg/mL (≈ 82.8 µM), an MIC ([2]; clinical strain 61 (Table S2), read-out: MIC) of 50 µg/mL (≈ 82.8 µM) and an MIC ([2]; clinical strain 62 (Table S2), read-out: MIC) of 50 µg/mL (≈ 82.8 µM). For the same compound, the MIC ([2]; clinical strain 63 (Table S2), read-out: MIC) was 50 µg/mL (≈ 82.8 µM), the MIC ([2]; clinical strain 64 (Table S2), read-out: MIC) was 50 µg/mL (≈ 82.8 µM) and the MIC ([2]; clinical strain 65 (Table S2), read-out: MIC) was 6.25 µg/mL (≈ 10.4 µM). For the same compound, the MIC ([2]; clinical strain 66 (Table S2), read-out: MIC) was 3.12 µg/mL (≈ 5.18 µM), the MIC ([2]; clinical strain 67 (Table S2), read-out: MIC) was 50 µg/mL (≈ 82.8 µM) and the MIC ([2]; clinical strain 68 (Table S2), read-out: MIC) was 50 µg/mL (≈ 82.8 µM). For the same compound, the MIC ([2]; clinical strain 69 (Table S2), read-out: MIC) was 50 µg/mL (≈ 82.8 µM), the MIC ([2]; clinical strain 70 (Table S2), read-out: MIC) was 50 µg/mL (≈ 82.8 µM) and the MIC ([2]; clinical strain 71 (Table S2), read-out: MIC) was 50 µg/mL (≈ 82.8 µM). It also gave an MIC ([2]; clinical strain 72 (Table S2), read-out: MIC) of 50 µg/mL (≈ 82.8 µM), an MIC ([2]; clinical strain 73 (Table S2), read-out: MIC) of 50 µg/mL (≈ 82.8 µM) and an MIC ([2]; clinical strain 74 (Table S2), read-out: MIC) of 50 µg/mL (≈ 82.8 µM). It also gave an MIC ([2]; clinical strain 75 (Table S2), read-out: MIC) of 50 µg/mL (≈ 82.8 µM), an MIC ([2]; clinical strain 76 (Table S2), read-out: MIC) of 50 µg/mL (≈ 82.8 µM) and an MIC ([2]; clinical strain 77 (Table S2), read-out: MIC) of 0.8 µg/mL (≈ 1.33 µM). For the same compound, the MIC ([2]; clinical strain 78 (Table S2), read-out: MIC) was 50 µg/mL (≈ 82.8 µM), the MIC ([2]; clinical strain 79 (Table S2), read-out: MIC) was 50 µg/mL (≈ 82.8 µM) and the MIC ([2]; clinical strain 80 (Table S2), read-out: MIC) was 50 µg/mL (≈ 82.8 µM). For the same compound, the MIC ([2]; clinical strain 81 (Table S2), read-out: MIC) was 3.12 µg/mL (≈ 5.18 µM), the MIC ([2]; mean of MIC values against clinical MDR-SE isolates, read-out: mean MIC) was 35.2 µg/mL (≈ 58.3 µM) and the MIC50 ([2]; 81 clinical strains, concentration inhibiting growth of 50% clinical isolates) was 50 µg/mL (≈ 82.8 µM). The MIC90 ([2]; 81 clinical strains, concentration inhibiting growth of 90% of clinical isolates) was 50 µg/mL (≈ 82.8 µM) and the MIC [3] was no more than 0.8 µg/mL.
